Key:
[1] = MF released from drug layered balloon on inflation in sheep frontal sinus ostia; type: in vivo
Experimental: (§1) The amount of mometasone furoate transferred to the ostia (total MF released) was measured after inflation of balloons having a drug layer including the listed dose of mometasone furoate drug crystals and poly(ethylene glycol) and polysorbate as the excipients.
Expandable members were made by spray coating 6 mm×20 mm semi-compliant balloons with a drug layer formulation. The drug layer formulation included either a 1500 μg or 3000 μg dose of mometasone furoate, poly(ethylene glycol), and a polysorbate. The drug layered balloons were then exposed in an acetone solvent vapor for 30 minutes.
(§2) In this Example, drug layered balloons were made according to Example 1 and used to dilate sheep frontal ostia.

[2] = in vitro release rates for expandable members having varying amounts of crystalline mometasone furoate (FIG. 4); type: physicochemical
Description: FIG. 4 is a graph comparing the in vitro release rates for expandable members having varying amounts of crystalline mometasone furoate. The amount of crystalline and amorphous drug provided in the drug layer will generally vary depending on the active agent employed, target tissue being treated, therapeutic drug level desired in the target tissue, and/or the drug release profile desired. For example, the ratio of amorphous to crystalline drug in the drug layer can be about 1:3, 1:2, 1:1, 2:1, or 3:1. A higher amorphous to crystalline drug ratio can lead to quicker tissue absorption due to the higher solubility of amorphous drug. In turn, a higher crystalline to amorphous drug ratio can lead to longer residence time of the drug on tissue. […] Thus, a combination of amorphous and crystalline drug in the drug layer can provide immediate release of the active agent to begin treatment of a nose, ear, or throat condition, as well as sustained release of the active agent into the target tissue, as illustrated by the moderate in vitro release rates for drug layers subjected to solvent vapor annealing (SVA) in FIG. 4. In some variations, the drug layer is formed to include about 60% of the active agent as drug crystals. In one variation, the drug layer is formed to include mometasone furoate, where about 60% of the mometasone furoate is in crystalline form. The ratio of crystalline to amorphous drug in the drug layer can be adjusted during the drug layering process onto the expandable member, e.g., during the solvent vapor annealing process, as further described below, or during sterilization.

[3] = plasma MF concentration after balloon expansions in sheep frontal sinus ostia; type: in vivo
[4] = tissue concentration of mometasone furoate after balloon expansion in Eustachian tubes (LCMS); type: in vivo, domestic sheep; conditions: sheep, Eustachian tube mucosa, 1500 μg balloon expanded to 12 atm, read-out: maximum mometasone furoate tissue concentration
Experimental: The Eustachian tubes of eight domestic sheep were accessed transnasally using balloon catheters having drug layers containing 1500 μg of mometasone furoate. The balloon catheters were made as described in Example 1. A singe balloon catheter was expanded to 12 atm of pressure to deliver the mometasone furoate crystals to Eustachian tube tissue and to dilate each contralateral Eustachian tube at its proximal opening. The animals were sacrificed at either 7 days or 30 days after balloon expansion, and mucosa from each Eustachian tube collected and frozen. Mometasone furoate concentration was then quantified using liquid chromatography mass spectrometry (LCMS).

[5] = tissue MF concentration after balloon expansion in sheep frontal sinus ostia; conditions: for concentration at 30 days / concentration at 7 days / concentration at 14 days / concentration at 1 hour: sheep; for concentration at 1 hour: Approx. 1 hour after inflation
Experimental: as §1, §2

[6] = frontal sinus ostia tissue, 3000 μg, Average Tissue MF Concentrations, Frontal Sinus Ostia, MF Dose 3000 μg, Study Arm 1, 2
[7] = nasal passage tissue, 3000 μg, Average Tissue MF Concentrations, Nasal Passage, MF Dose 3000 μg, Study Arm 1, 2

Total MF Released ([1]; Dose 1500 μg, 36.4% drug crystals, crystal size 78.7 μm, PEG and polysorbate excipients): 350 µg | Total MF Released ([1]; Dose 1500 μg, 62.5% drug crystals, crystal size 128.1 μm): 478 µg | Total MF Released ([1]; Dose 3000 μg, 60.4% drug crystals, crystal size 91.1 μm): 1778 µg | Total MF Released ([1]; Dose 3000 μg, 67.4% drug crystals, crystal size 132.6 μm): 1058 µg | MF Release (% MF Dose) ([1]; MF Dose 1500 μg, 1st inflation, Study Arm 2 (treatment)): 35 % MF Dose | Average MF Release per Inflation ([1]; MF Dose 1500 μg, 1st inflation, Study Arm 2 (treatment), n=4): 524 µg | MF Release (% MF Dose) ([1]; MF Dose 1500 μg, 2nd inflation, Study Arm 1 (treatment)): 12 % MF Dose | Average MF Release per Inflation ([1]; MF Dose 1500 μg, 2nd inflation, Study Arm 1 (treatment), n=4): 176 µg | Average MF Release per Inflation ([1]; MF Dose 1500 μg, Average over first two inflations): 350 µg | Total MF Released ([1]; MF Dose 1500 μg, Table 7): 350 µg | Average % MF Release per Inflation ([1]; MF Dose 3000 μg, Study Arm 1, two expansions): 30% | Average MF Release per Inflation ([1]; MF Dose 3000 μg, Study Arm 1, two expansions, n=32 devices): 889 µg | Average % MF Release per Inflation ([1]; MF Dose 3000 μg, Study Arm 2 (bloody sheep frontal sinus ostia)): 28% | Average MF Release per Inflation ([1]; MF Dose 3000 μg, Study Arm 2 (bloody sheep frontal sinus ostia), n=4 devices): 854 µg | in vitro release rate ([2]; drug layer contains the active agent only as crystals (100% crystals)): slowest | in vitro release rate ([2]; drug layer contains the active agent only in amorphous form (0% crystals)): fastest | in vitro release rates ([2]; drug layers subjected to solvent vapor annealing (SVA), amorphous and crystalline drug): moderate | plasma levels ([3]; MF dose 1500 μg, 30 days post the two expansions): below the limit of quantitation | concentration at 7 days ([4]; 7 days): 47000 ng/g | concentration at 30 days ([4]; 30 days): 200 ng/g | average tissue MF concentrations for the frontal sinus ostia relative to therapeutic levels ([5]; MF Dose 3000 μg, all time points): at or above therapeutic levels | concentration at 30 days ([5]; frontal sinus ostia tissue, 1500 μg, Average 30 day tissue MF Concentration in Sinus Ostia, 36.4% drug crystals, crystal size 78.7 μm, 30 days): 5000 ng/g | concentration at 30 days ([5]; frontal sinus ostia tissue, 1500 μg, Average 30 day tissue MF Concentration in Sinus Ostia, 62.5% drug crystals, crystal size 128.1 μm, 30 days): 1000 ng/g | concentration at 30 days ([5]; frontal sinus ostia tissue, 1500 μg, MF Concentration Frontal Sinus Ostia Tissue, MF Dose 1500 μg, explant timepoint 30 days, two expansions): 5000 ng/g | concentration at 30 days ([5]; frontal sinus ostia tissue, 1500 μg, average tissue MF concentrations for the frontal sinus ostia, MF dose 1500 μg, 30 days, compared with therapeutic level): > 100 ng/g | concentration at 30 days ([5]; frontal sinus ostia tissue, 1500 μg, mometasone furoate concentrations in tissue at 30 days, crystals sized less than 80 μm, less than 60% of the drug layer containing drug crystals): ~5000 ng/g | concentration at 30 days ([5]; frontal sinus ostia tissue, 3000 μg, Average 30 day tissue MF Concentration in Sinus Ostia, 60.4% drug crystals, crystal size 91.1 μm, 30 days): 100 ng/g | concentration at 30 days ([5]; frontal sinus ostia tissue, 3000 μg, Average 30 day tissue MF Concentration in Sinus Ostia, 67.4% drug crystals, crystal size 132.6 μm, 30 days): 2000 ng/g | concentration at 7 days [5, 6]: 9890 ng/g | concentration at 14 days [5, 6]: 1250 ng/g | concentration at 30 days ([5]; frontal sinus ostia tissue, 3000 μg, Average Tissue MF Concentrations, Frontal Sinus Ostia, MF Dose 3000 μg, Study Arm 1, 2, 30 days): 100 ng/g | concentration at 1 hour [5, 6]: 142000 ng/g | concentration at 30 days ([5]; in vivo, 30 day tissue concentrations (in sheep frontal sinus ostia)): ≥ 100 ng/g | concentration at 7 days [5, 7]: 60 ng/g | concentration at 14 days [5, 7]: 20 ng/g | concentration at 30 days ([5]; nasal passage tissue, 3000 μg, Average Tissue MF Concentrations, Nasal Passage, MF Dose 3000 μg, Study Arm 1, 2, 30 days): 1380 ng/g | concentration at 1 hour [5, 7]: 4730 ng/g
Structure (SMILES): C[C@@H]1C[C@H]2[C@@H]3CCC4=CC(=O)C=C[C@]4(C)[C@@]3(Cl)[C@@H](O)C[C@]2(C)[C@@]1(OC(=O)c1ccco1)C(=O)CCl [MF, mometasone furoate]
MF Concentration Plasma ([3]; MF Dose 1500 μg, 30 days, analytical range 20.0-1000.0 pg/mL): BLQ (Below Limit of Quantitation (≤20.0 pg/mL))

From patent US11672959B2, “Expandable member systems and methods for drug delivery” (Intersect ENT, Inc., priority 2019, dated 2023)
